Measured values from article PMC8766756, “Insights on Cancer Cell Inhibition, Subcellular Activities, and Kinase Profile of Phenylacetamides Pending 1H-Imidazol-5-One Variants” (Frontiers in Pharmacology, 2022).
“And” between values parts separate entries of the source, which are not always exact repeats. Identical values can stand only once.

How the values were obtained:
Assay in all cases: PamChip tyrosine kinase microarray
Type in all cases: biochemical
Details in all cases: 0.1 µM, HL60 lysate
[1] = target: T1, LTK (P29376) (Homo sapiens, UniProt P29376)
T1 construct: purchased PamGene (PamChip PTK array, Upstream Kinase Analysis)
T1 sequence (P29376 17-864): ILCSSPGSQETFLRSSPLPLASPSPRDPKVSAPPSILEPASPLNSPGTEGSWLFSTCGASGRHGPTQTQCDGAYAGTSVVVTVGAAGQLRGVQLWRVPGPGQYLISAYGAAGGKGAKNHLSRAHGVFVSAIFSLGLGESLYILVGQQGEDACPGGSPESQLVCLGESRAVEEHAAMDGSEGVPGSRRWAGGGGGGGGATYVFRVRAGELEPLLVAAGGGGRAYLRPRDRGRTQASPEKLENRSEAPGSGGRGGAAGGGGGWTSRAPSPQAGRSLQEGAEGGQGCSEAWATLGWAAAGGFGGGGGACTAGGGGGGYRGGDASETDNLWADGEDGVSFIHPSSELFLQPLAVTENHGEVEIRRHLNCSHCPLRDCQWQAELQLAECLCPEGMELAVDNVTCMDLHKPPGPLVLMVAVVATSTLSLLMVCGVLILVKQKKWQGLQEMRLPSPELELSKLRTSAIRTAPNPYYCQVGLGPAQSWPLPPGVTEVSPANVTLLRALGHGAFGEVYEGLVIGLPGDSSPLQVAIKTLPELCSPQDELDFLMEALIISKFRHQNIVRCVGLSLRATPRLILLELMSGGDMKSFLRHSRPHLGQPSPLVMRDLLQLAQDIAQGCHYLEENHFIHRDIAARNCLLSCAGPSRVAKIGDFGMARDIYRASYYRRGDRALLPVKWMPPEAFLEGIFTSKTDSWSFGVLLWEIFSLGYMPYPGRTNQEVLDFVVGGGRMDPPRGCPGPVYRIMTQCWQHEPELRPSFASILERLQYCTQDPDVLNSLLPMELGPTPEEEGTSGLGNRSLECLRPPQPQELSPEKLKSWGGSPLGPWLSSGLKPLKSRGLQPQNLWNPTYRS
In short: (§1)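 HL60 (AML) cell lysate was spiked with compound at 0.001, 0.01, 0.1, 1, 10 and 50 µM, or 2% v/v DMSO as control, then profiled in technical replicates on a tyrosine kinase peptide array of 196 phosphosites. Kinase activity was inferred from peptide-set changes using an upstream kinase tool.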

[2] = target: T2, FGFR2 (P21802) (Homo sapiens, UniProt P21802)
T2 construct: purchased PamGene (PamChip PTK array, Upstream Kinase Analysis)
T2 sequence (P21802 22-821): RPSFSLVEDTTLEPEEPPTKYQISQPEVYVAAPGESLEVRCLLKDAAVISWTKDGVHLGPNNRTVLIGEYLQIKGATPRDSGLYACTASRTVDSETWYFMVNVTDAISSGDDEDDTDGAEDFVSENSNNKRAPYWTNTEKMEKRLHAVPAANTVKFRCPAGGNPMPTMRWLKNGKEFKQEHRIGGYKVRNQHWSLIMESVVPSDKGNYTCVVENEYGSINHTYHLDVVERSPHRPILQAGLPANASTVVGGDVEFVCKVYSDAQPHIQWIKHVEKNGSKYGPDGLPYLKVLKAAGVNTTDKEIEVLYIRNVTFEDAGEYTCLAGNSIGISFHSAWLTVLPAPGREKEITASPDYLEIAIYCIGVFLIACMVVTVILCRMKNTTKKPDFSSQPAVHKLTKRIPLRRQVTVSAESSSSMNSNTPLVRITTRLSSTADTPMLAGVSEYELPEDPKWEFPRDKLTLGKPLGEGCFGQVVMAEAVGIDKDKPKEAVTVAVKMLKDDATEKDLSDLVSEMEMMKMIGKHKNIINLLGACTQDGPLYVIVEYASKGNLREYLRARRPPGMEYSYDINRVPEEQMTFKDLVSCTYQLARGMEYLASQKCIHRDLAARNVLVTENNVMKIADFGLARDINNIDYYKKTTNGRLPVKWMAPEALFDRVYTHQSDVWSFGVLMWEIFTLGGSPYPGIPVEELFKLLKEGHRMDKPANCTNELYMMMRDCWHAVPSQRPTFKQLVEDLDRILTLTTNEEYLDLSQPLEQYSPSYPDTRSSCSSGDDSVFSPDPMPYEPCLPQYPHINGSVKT
In short: as §1

[3] = target: T3, JAK2 (O60674) (Homo sapiens, UniProt O60674)
T3 construct: purchased PamGene (PamChip PTK array, Upstream Kinase Analysis)
T3 sequence (O60674 whole entry): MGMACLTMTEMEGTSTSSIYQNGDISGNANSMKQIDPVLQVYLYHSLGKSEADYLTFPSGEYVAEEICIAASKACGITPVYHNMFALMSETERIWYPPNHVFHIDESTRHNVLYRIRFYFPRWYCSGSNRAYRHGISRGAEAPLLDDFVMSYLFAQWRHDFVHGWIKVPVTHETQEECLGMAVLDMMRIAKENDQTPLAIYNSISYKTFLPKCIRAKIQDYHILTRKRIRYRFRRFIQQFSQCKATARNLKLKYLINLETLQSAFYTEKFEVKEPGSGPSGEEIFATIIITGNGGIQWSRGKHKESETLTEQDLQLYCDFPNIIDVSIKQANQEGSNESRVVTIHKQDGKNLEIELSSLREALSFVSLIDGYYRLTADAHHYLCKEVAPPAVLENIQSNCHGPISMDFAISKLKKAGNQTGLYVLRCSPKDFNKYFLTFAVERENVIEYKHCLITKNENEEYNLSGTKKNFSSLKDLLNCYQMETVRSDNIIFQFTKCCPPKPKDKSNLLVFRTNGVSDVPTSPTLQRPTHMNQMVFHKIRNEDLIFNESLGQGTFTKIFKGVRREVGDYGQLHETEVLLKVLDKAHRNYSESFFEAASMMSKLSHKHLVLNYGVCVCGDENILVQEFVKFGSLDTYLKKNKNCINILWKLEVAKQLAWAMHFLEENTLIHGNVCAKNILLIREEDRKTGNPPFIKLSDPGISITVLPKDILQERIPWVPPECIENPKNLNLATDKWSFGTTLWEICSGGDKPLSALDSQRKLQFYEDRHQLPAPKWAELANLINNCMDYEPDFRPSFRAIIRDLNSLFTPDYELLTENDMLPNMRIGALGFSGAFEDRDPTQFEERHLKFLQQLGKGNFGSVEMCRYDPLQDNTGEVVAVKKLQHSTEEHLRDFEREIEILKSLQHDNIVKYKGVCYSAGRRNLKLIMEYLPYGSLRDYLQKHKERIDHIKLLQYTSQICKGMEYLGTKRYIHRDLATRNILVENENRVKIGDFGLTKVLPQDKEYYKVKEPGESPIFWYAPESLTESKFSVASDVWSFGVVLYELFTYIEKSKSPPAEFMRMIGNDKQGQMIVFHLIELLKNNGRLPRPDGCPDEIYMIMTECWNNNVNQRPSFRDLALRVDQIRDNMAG
In short: as §1

[4] = target: T4, TRKA (P04629) (Homo sapiens, UniProt P04629)
T4 construct: purchased PamGene (PamChip PTK array, Upstream Kinase Analysis)
T4 sequence (P04629 33-796): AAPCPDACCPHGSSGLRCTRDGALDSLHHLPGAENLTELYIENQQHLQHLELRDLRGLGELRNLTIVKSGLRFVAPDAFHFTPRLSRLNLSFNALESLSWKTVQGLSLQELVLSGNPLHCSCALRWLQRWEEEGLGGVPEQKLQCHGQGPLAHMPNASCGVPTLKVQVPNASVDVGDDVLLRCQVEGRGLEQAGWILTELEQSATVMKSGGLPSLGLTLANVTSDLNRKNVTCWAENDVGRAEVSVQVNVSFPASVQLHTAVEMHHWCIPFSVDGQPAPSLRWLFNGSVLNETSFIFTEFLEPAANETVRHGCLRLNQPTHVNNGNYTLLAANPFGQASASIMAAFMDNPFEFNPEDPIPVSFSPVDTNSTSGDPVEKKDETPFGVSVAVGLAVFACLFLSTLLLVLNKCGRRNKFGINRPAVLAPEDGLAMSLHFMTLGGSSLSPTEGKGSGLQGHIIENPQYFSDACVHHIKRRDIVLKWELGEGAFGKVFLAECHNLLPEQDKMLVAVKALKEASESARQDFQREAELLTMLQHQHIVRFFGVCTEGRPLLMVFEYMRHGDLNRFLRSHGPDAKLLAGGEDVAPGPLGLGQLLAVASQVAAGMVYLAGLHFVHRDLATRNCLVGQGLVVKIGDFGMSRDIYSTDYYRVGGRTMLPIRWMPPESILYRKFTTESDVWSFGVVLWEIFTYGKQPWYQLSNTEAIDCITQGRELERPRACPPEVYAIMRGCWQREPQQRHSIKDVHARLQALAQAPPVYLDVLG
In short: as §1

[5] = target: T5, PDGFR[beta] (P09619) (Homo sapiens, UniProt P09619)
T5 construct: purchased PamGene (PamChip PTK array, Upstream Kinase Analysis)
T5 sequence (P09619 33-1106): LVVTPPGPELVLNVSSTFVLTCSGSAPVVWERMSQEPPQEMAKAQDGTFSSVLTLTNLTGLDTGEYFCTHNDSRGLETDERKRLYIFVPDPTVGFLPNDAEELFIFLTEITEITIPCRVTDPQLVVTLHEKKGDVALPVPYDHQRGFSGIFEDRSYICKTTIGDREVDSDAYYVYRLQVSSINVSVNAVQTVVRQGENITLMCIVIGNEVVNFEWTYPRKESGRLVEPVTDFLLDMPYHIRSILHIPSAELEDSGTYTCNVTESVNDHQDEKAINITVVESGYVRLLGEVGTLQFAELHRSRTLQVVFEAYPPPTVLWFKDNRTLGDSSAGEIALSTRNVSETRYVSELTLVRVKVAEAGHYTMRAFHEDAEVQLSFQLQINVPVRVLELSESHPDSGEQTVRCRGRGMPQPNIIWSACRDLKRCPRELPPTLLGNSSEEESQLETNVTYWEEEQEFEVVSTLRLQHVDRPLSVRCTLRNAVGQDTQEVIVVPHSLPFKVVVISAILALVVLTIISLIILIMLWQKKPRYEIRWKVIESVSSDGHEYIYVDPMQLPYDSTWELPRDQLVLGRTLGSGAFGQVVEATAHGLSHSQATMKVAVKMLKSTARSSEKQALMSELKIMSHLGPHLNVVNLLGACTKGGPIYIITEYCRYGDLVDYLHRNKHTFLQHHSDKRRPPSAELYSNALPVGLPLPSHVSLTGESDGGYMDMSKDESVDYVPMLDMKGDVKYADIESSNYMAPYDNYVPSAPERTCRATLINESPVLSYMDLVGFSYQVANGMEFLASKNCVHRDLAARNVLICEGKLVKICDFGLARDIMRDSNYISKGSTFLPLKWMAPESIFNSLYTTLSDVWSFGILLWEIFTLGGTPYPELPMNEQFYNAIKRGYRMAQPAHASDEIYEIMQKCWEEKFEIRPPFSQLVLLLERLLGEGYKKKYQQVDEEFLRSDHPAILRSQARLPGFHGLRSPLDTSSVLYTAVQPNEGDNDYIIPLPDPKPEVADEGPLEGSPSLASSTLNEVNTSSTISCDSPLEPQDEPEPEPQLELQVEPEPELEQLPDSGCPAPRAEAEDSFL
In short: as §1

[6] = target: T6, EphA8 (P29322) (Homo sapiens, UniProt P29322)
T6 construct: purchased PamGene (PamChip PTK array, Upstream Kinase Analysis)
T6 sequence (P29322 28-1005): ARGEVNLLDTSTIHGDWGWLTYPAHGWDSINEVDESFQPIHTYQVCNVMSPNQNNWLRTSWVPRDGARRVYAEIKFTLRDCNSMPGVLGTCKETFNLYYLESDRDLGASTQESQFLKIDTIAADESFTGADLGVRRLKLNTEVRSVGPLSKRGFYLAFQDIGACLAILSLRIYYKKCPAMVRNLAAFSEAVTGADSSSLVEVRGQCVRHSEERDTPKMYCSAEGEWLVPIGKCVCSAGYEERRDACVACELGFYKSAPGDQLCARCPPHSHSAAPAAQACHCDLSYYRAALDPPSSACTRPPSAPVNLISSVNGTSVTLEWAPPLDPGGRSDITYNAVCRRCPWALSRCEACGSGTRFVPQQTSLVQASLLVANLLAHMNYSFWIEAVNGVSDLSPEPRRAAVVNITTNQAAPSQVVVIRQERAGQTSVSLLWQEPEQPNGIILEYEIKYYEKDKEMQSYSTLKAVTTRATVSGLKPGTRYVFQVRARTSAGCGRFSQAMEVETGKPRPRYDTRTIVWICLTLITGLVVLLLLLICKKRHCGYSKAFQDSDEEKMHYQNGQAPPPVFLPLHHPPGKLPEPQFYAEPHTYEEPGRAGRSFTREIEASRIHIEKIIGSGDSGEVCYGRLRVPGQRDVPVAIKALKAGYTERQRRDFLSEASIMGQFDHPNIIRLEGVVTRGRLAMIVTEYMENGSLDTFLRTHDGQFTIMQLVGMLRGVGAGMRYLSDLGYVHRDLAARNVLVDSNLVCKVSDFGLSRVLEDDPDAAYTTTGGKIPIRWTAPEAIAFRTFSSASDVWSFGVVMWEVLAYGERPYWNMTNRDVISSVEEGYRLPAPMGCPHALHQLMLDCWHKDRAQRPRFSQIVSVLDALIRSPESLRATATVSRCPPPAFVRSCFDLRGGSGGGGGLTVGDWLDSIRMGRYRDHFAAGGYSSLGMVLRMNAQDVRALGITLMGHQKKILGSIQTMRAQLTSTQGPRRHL
In short: as §1

COc1ccc(/C=C2\N=C(C)N(c3ccc(CC(=O)NCc4ccccc4)cc3)C2=O)cc1 [Compound 4c, (Z)-N-Benzyl-2-(4-(4-(4-methoxybenzylidene)-2-methyl-5-oxo-4,5-dihydro-1H-imidazol-1-yl)phenyl)acetamide]
Mean Final score (Kinase score) [1]: 1.968 | Mean Kinase Statistic [1]: -1.055 | Mean Significance Score [1]: 1.724 | Mean Specificity Score [1]: 0.1654 | Mean Final score (Kinase score) [2]: 2.386 | Mean Kinase Statistic [2]: -1.189 | Mean Significance Score [2]: 2.048 | Mean Specificity Score [2]: 0.3335 | Mean Significance Score [3]: 2.048 | Mean Specificity Score [3]: 1.216 | Mean Final score (Kinase score) ([3]; listed as KIM-161): 3.19 and 3.191 | Mean Kinase Statistic ([3]; listed as KIM-161): −1.43 | Mean Final score (Kinase score) [4]: 2.339 | Mean Kinase Statistic [4]: -1.138 | Mean Significance Score [4]: 2.048 | Mean Specificity Score [4]: 0.2694 | Mean Final score (Kinase score) [5]: 2.559 | Mean Kinase Statistic [5]: -1.304 | Mean Significance Score [5]: 2.048 | Mean Specificity Score [5]: 0.562 | Mean Final score (Kinase score) [6]: 2.201 | Mean Kinase Statistic [6]: -0.925 | Mean Significance Score [6]: 1.989 | Mean Specificity Score [6]: 0.1251
